In the NIST ThermoML archive (doi:10.1016/j.jct.2008.09.016):

Assay: mn = molality of the nth substance listed, in mol/kg
Conditions: 101 kPa, Liquid, Vibrating tube method

O=C([O-])Cc1ccccc1Nc1c(Cl)cccc1Cl.[Na+] [sodium diclofenac] + O
mass density [kg/m3]
Conditions | m1 = 0.0075 | m1 = 0.0076 | m1 = 0.01 | m1 = 0.0125 | m1 = 0.0152 | m1 = 0.0175 | m1 = 0.02 | m1 = 0.025
293.15 K | – | 998.331 | 998.385 | 998.445 | 998.525 | 998.605 | 998.695 | 998.911
298.15 K | – | 997.159 | 997.215 | 997.261 | 997.325 | 997.405 | 997.505 | 997.691
303.15 K | – | 995.745 | 995.795 | 995.851 | 995.905 | 995.973 | 996.075 | 996.239
308.15 K | – | 994.125 | 994.175 | 994.221 | 994.294 | 994.351 | 994.436 | 994.595
310.15 K | – | 993.388 | 993.424 | 993.475 | 993.541 | 993.591 | 993.661 | 993.851
313.15 K | 992.285 | – | 992.325 | 992.375 | 992.428 | 992.481 | 992.545 | 992.725
